Assay results: PubChem BioAssay AID1159565 (GlaxoSmithKline (GSK), 2015)
Calls of active or inactive are those of the source. The rule behind the calls is not given here.

System: T. cruzi-infected H9C2 cardiomyocytes, high-content imaging
Assay: anti-T. cruzi activity in infected cardiomyocytes – imaging, H9C2 host cardiomyocytes, host toxicity (AID 1159565);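 note: infected cells incubated 72 h after plating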
[1] = measured here: H9C2 host cell toxicity
[2] = measured here: amastigotes per cell

Row | Structure (SMILES) | IC50 | IC50 [1] | IC50 [2]
1 | O=C(NC(c1ccc(Cl)cc1)c1cnccn1)C1CCN(C(=O)Nc2cccc(C(F)(F)F)c2)CC1 (stereo not given) | 630 nM | > 50000 nM | 500 nM
2 | CN(C)c1ncc(-c2cncn2CCOc2ccc(Cl)cc2)cn1 | 250 nM | > 50000 nM | 200 nM
3 | O=c1ccc2ccc(F)c3c2n1C[C@H]3CN1CCC(NCc2cc3ccccc3o2)CC1 | 200 nM | 32000 nM | 130 nM
4 | Cc1cccc(NS(=O)(=O)c2ccc3c(c2)C(=O)c2cc(S(=O)(=O)Nc4cccc(C)c4C)ccc2-3)c1C | 400 nM | 32000 nM | 400 nM
5 | C[C@@H](Oc1cc(-n2cnc3ccc(C(O)CO)cc32)sc1C(N)=O)c1ccccc1C(F)(F)F (stereo not given in full) | 20000 nM | 630 nM | 16000 nM
6 | Cc1ccc2sc(NC(=O)Cn3cnc([N+](=O)[O-])n3)nc2c1 | 4000 nM | > 50000 nM | 500 nM
7 | Cc1cc(Nc2ccc(C#N)c(Cl)c2C)n[nH]1 | > 50000 nM (inactive) | > 50000 nM | 20000 nM
8 | O=C(c1cccc(Cl)c1Cl)N1CCn2c1nc(-c1ccncc1)cc2=O | 320 nM | > 50000 nM | 320 nM
9 | N#Cc1c(Oc2cccc(Cl)c2)cccc1[N+](=O)[O-] | 630 nM | 16000 nM | 130 nM
10 | CCCNC(=O)Nc1cccc(-c2nc3ncccc3o2)c1 | 4000 nM | 25000 nM | 3200 nM
11 | COc1ccc(Nc2nc(NC3CCC(O)CC3)ncc2Br)c(C(N)=O)c1 (stereo not given) | 3200 nM | 790 nM | 2000 nM
12 | CC(C)(C)C(=O)Nc1cc(C2CC2)nn1-c1nc2c(c(=O)[nH]1)CCCC2 | 500 nM | 2000 nM | 130 nM
13 | O=C1CN(C2CCCc3c(OCc4ccncc4)cccc32)C(=O)N1C1CCCCC1 (stereo not given) | 16 nM | > 50000 nM | 13 nM
14 | OC1CCC(Nc2nccc(-c3sc(C4CCOCC4)nc3-c3ccc(F)c(F)c3)n2)CC1 (stereo not given) | 320 nM | 32000 nM | 200 nM
15 | COc1ccc(S(=O)(=O)NCc2ccc(-c3ccc(CN(C)CCO)cc3)cc2)cc1 | 2500 nM | > 50000 nM | 1300 nM
16 | c1ccc2[nH]c(-c3ccc(N4CCCC4)nc3)nc2c1 | 1600 nM | > 50000 nM | 1000 nM
17 | CCS(=O)(=O)c1cccc(C(=O)Nc2nc(-c3ccccn3)cs2)c1 | 2500 nM | 4000 nM | 1600 nM
18 | CCOc1cc(NCCCN2CCN(C)CC2)c2ncccc2c1 | 1300 nM | 32000 nM | 1000 nM
19 | O=C(NCCc1cccnc1)c1csc(-c2ccccc2)n1 | 500 nM | > 50000 nM | 400 nM
20 | O=C(NCC(c1cccnc1)N1CCc2ccccc2C1)C(=O)Nc1cccc(Cl)c1 (stereo not given) | 79 nM | 25000 nM | 63 nM
21 | Cc1cccnc1CN1CCN(CCCOc2ccc(-c3ccc(C(N)=O)cc3)cc2)CC1 | 20000 nM | > 50000 nM | 400 nM
22 | COc1cc(F)c2ncc(F)c(CCN3CC[C@H](NCc4cc5c(cn4)OCS5)[C@@H](O)C3)c2c1 | 250 nM | > 50000 nM | 200 nM
23 | CN1CCN(c2nc(-c3ccc(Cl)cc3)c3c(N)n(C)nc3n2)CC1 | 1000 nM | 25000 nM | 790 nM
24 | CNC(=O)C1Cc2ccccc2N1C(=O)Cc1ccc(OC)cc1 (stereo not given) | > 50000 nM (inactive) | > 50000 nM | > 50000 nM

Row | Structure (SMILES) | IC50 | IC50 [1] | IC50 [2]
25 | Cc1cc(-c2cccc3ccccc23)nc2nc(N)nc(N)c12 | > 50000 nM (inactive) | > 50000 nM | 32000 nM
26 | CCc1cccc(CC)c1-n1c(SCC(=O)NC(=O)NCc2ccco2)nnc1-c1cccnc1 | 13000 nM | > 50000 nM | 7900 nM
27 | COc1cc(C2SCC(=O)Nc3c2c(C)nn3-c2nc3ccccc3s2)cc(OC)c1O (stereo not given) | > 50000 nM (inactive) | > 50000 nM | > 50000 nM
28 | Clc1ccc(C(CC2CCCCO2)Cn2cncn2)c(Cl)c1 (stereo not given) | 1300 nM | > 50000 nM | 1000 nM
29 | Cc1[nH]c2ccccc2c(=O)c1Cc1c(C)[nH]c2ccccc2c1=O | 3200 nM | > 50000 nM | 1000 nM
30 | FC(F)(F)c1cc(C2CCCN(Cc3c[nH]c4ccccc34)C2)nc2ncnn12 (stereo not given) | 10000 nM | > 50000 nM | 6300 nM
31 | CC(C)c1nn(-c2nc(N)nc(-c3ccccn3)n2)c(N)c1C1CCCCC1 | 1300 nM | 3200 nM | 1300 nM
32 | O=C(Nc1nc(-c2ccc(F)cc2)cs1)c1ccc([N+](=O)[O-])s1 | 250 nM | 4000 nM | 160 nM
33 | COc1ccc([N+](=O)[O-])cc1NC(=O)c1cc(Cl)ccc1O | 16000 nM | > 50000 nM | 7900 nM
34 | CCOc1ccc(CC(=O)N2c3ccccc3CC2C(=O)NC)cc1 (stereo not given) | > 50000 nM (inactive) | > 50000 nM | > 50000 nM
35 | O=C(COc1nn(-c2ccccc2)c2ncccc12)NCc1ccccc1 | > 50000 nM (inactive) | > 50000 nM | 32000 nM
36 | O=C(CSc1ccc(F)cc1)N[C@@H](Cc1cnc[nH]1)C(=O)NCCc1ccccc1 | 500 nM | > 50000 nM | 500 nM
37 | CS(=O)(=O)c1cccc(CNC(=O)c2cncc(N3CCN(c4ccc(F)cc4)CC3)c2)c1 | 400 nM | > 50000 nM | 250 nM
38 | O=S(=O)(c1cccc(CSc2nnc(-c3ccc4c(c3)OCO4)o2)c1)N1CCOCC1 | 100 nM | 25000 nM | 40 nM
39 | COc1ccc(-c2ccc3nnc(-c4ccc(O)c(OC)c4)n3c2)cn1 | 3200 nM | > 50000 nM | 2000 nM
40 | Cc1cc(N2CCc3ccccc3C2)nc(Nc2ccc(S(=O)(=O)N3CCOCC3)cc2)n1 | > 50000 nM (inactive) | > 50000 nM | 25000 nM
41 | CC(CCc1ccccc1)NC(=O)CN(Cc1ccccn1)Cc1ccccn1 (stereo not given) | 10000 nM | > 79000 nM | 3200 nM
42 | Cc1ccc(C)c(-n2nnnc2Sc2nc([N+](=O)[O-])nn2C)c1 | 790 nM | > 50000 nM | 250 nM
43 | CCN(CC)S(=O)(=O)c1ccc(C(=O)Nc2cc(C)nn2-c2nc(C)c(C)c(=O)[nH]2)cc1 | 1600 nM | > 50000 nM | 320 nM
44 | CCC(CC)C(=O)Nc1ccc(-c2nnc(-c3ccc(OC)cc3)o2)cc1 | 13000 nM | > 50000 nM | 4000 nM
45 | Cc1nn(C)c(Cl)c1CN(Cc1cccnc1)Cc1ccsc1 | 320 nM | > 50000 nM | 320 nM
46 | CC(C)(C)c1cc(NC2CC2)nc(-c2ccccn2)n1 | 1600 nM | 320 nM | 1300 nM
47 | CN(Cc1ccccc1)Cc1nnnn1C1CCN(Cc2ccc(-n3ccnc3)cc2)CC1 | 320 nM | > 50000 nM | 250 nM
48 | Cc1cc(=O)n2nc(Oc3ccc(C#N)cc3Cl)sc2n1 | 32000 nM | 32000 nM | 25000 nM

Row | Structure (SMILES) | IC50 | IC50 [1] | IC50 [2]
49 | Cc1ccccc1NS(=O)(=O)c1ccc2[nH]cc(C(=O)NC3CCCCC3)c(=O)c2c1 | 16000 nM | 25000 nM | 10000 nM
50 | Cc1cc(Br)sc1CNCCCNc1cc(=O)c2ccccc2[nH]1 | 790 nM | 25000 nM | 500 nM
51 | NC(=O)c1ncc(N[C@@H]2CCCNC2)nc1Nc1cccc(Cl)c1 | 400 nM | 1300 nM | 250 nM
52 | COc1cnc2ccc(=O)n(CCN3CCC(NC(=O)c4ccc(Cl)cc4)CC3)c2c1 | 250 nM | 630 nM | 79 nM
53 | Nc1nonc1-c1nc2cncc(C(=O)N3CC[C@H](N)C3)c2n1CC1CC1 | > 50000 nM (inactive) | > 50000 nM | 13000 nM
54 | Cc1cc(NC(=O)C2CCCCC2)n(-c2nc3c(c(=O)[nH]2)CCC3)n1 | 500 nM | 2000 nM | 160 nM
55 | Cc1ccc(S(=O)(=O)Nc2ccc(CN3CCN(C(=O)c4cccc(C#N)c4)CC3)cc2)cc1 | 500 nM | > 50000 nM | 400 nM
56 | Cc1ccc(C)c(CN2C(=O)NC3(CCc4ccccc43)C2=O)c1 (stereo not given) | 20000 nM | > 50000 nM | 7900 nM
57 | Cc1nc(C(=O)Nc2ccc3c(c2)OCO3)nn1-c1ccc(Cl)cc1 | 1600 nM | > 50000 nM | 1000 nM
58 | Cc1cc(N(C)C)nc(Nc2ccccc2C)n1 | 790 nM | > 50000 nM | 500 nM
59 | c1ccc2c(CCOc3nccnc3-c3ccncc3)c[nH]c2c1 | 160 nM | > 50000 nM | 160 nM
60 | O=C(NCCc1csc(-c2ccc(F)cc2)n1)c1cccs1 | 400 nM | > 50000 nM | 250 nM
61 | CC(C)(C)C(O)(CCc1ccc(Cl)cc1)Cn1cncn1 (stereo not given) | 250 nM | > 50000 nM | 200 nM
62 | Cc1cc(C#N)c([N+](=O)[O-])cc1Br | 320 nM | 50000 nM | 50 nM
63 | COc1ccc(CN2CCCCC2c2nc(-c3cccnc3)no2)cc1 (stereo not given) | 790 nM | > 50000 nM | 630 nM
64 | CC1CCCN(S(=O)(=O)c2ccc(C(=O)Nc3nc(-c4ccccn4)cs3)cc2)C1 (stereo not given) | 500 nM | 3200 nM | 250 nM
65 | COc1ccc(S(=O)(=O)Nc2ccc(C(=O)Nc3nc(-c4ccccn4)cs3)cc2)cc1 | 790 nM | 6300 nM | 630 nM
66 | Cc1cc(C)n(-c2nc(NC(C)C)nc(NC(C)(C)C)n2)n1 | 1600 nM | 200 nM | 500 nM
67 | CCc1nn(-c2ncc(F)c(NC(C)C)n2)c(N)c1C1CCCCC1 | 3200 nM | 1000 nM | 1600 nM
68 | O=C(NC1CCN(C2Cc3ccc(NS(=O)(=O)c4cc(F)cc(F)c4)cc3C2)CC1)C1CC1 (stereo not given) | > 50000 nM (inactive) | > 50000 nM | > 50000 nM
69 | COc1ccc(S(=O)(=O)Nc2ccccc2OC)cc1NC(=O)CCCc1c[nH]c2ccccc12 | 1300 nM | > 50000 nM | 1000 nM
70 | CCNc1cc(-c2ccccn2)nc(Nc2ccccc2)n1 | 3200 nM | 250 nM | 3200 nM
